The text below walks through data of ChEMBL document CHEMBL3991601, “The target landscape of clinical kinase drugs” (Science, 2017).

The target in test [1] is T1, Very long-chain specific acyl-CoA dehydrogenase, mitochondrial (Homo sapiens, UniProt P49748).
T1 sequence (P49748 whole entry): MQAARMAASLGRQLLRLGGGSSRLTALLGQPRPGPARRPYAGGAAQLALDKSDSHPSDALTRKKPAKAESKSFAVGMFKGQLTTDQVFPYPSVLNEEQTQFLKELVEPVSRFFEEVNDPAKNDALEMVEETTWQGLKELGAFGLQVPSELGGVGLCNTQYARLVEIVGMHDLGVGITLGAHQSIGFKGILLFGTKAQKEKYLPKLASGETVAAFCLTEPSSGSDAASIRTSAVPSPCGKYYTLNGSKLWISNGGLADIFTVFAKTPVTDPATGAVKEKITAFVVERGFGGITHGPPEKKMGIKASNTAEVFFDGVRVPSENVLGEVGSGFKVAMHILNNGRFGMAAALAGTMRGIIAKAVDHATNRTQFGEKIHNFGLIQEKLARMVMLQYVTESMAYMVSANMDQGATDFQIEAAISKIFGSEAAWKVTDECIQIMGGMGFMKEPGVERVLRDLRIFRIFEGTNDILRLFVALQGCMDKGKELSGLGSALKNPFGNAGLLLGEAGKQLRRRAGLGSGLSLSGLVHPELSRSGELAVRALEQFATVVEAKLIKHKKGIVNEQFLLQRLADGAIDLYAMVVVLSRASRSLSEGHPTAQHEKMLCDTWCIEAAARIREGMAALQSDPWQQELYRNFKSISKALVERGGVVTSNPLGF

The target in test [2] is BMP-2-inducible protein kinase (Homo sapiens, UniProt Q9NSY1).
Chain of BMP-2-inducible protein kinase (Q9NSY1 whole entry): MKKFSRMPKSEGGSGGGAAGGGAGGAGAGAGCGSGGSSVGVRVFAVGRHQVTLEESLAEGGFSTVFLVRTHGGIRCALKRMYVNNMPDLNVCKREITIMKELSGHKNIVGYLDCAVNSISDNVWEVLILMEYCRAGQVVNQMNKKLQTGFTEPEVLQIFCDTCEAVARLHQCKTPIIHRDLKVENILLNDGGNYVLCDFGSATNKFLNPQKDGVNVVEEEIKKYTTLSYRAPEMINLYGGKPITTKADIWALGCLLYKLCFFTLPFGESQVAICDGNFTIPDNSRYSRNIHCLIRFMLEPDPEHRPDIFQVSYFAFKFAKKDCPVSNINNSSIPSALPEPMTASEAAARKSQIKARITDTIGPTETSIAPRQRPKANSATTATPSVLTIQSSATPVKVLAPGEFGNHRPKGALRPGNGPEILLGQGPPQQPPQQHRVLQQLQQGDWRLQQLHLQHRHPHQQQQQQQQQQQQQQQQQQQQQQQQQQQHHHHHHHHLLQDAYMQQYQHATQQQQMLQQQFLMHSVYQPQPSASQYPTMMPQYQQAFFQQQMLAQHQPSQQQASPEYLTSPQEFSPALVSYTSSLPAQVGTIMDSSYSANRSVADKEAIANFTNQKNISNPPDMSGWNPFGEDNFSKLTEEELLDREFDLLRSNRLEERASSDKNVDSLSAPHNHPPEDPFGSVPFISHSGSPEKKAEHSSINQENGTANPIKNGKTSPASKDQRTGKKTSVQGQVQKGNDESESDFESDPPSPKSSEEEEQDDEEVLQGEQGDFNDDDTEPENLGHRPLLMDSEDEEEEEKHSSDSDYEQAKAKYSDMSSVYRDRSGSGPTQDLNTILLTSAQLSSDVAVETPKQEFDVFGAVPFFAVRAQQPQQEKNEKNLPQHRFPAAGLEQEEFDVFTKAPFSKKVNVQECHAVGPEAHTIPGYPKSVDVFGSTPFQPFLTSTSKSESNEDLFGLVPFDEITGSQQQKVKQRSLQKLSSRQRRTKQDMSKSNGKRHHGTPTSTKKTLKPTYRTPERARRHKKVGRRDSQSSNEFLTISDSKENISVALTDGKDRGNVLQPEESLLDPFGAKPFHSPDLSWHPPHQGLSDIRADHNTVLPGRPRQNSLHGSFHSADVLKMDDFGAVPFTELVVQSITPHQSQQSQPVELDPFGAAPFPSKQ
Test [3] concerns the target Mitogen-activated protein kinase 7 (Homo sapiens, UniProt Q13164).
Test [4] has as its target Putative heat shock protein HSP 90-beta 2 (Homo sapiens, UniProt Q58FF8).
Test [5] has as its target T2, Inhibitor of nuclear factor kappa-B kinase subunit epsilon (Homo sapiens, UniProt Q14164).
T2 sequence (Q14164 whole entry): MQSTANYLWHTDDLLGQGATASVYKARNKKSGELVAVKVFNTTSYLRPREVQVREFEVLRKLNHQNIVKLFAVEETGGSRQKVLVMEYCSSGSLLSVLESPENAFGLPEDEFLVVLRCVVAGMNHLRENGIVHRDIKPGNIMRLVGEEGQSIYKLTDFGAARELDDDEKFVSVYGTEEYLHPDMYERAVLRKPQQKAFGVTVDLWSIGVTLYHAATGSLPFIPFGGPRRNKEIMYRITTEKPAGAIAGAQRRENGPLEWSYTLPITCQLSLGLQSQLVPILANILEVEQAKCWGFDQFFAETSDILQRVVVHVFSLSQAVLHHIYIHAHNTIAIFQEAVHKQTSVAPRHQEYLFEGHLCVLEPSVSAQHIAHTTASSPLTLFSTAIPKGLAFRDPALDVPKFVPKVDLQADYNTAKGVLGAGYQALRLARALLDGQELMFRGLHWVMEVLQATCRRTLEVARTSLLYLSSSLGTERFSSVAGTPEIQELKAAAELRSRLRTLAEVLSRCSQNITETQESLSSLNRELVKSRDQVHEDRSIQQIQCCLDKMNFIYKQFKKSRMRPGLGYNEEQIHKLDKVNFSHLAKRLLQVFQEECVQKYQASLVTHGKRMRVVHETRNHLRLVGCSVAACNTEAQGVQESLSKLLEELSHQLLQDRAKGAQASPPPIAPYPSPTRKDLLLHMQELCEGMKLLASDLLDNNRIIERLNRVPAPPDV

A further test has as its target Adenosine kinase (Homo sapiens, UniProt P55263).
The target in test [6] is Membrane-associated progesterone receptor component 1 (Homo sapiens, UniProt O00264).
Chain of Membrane-associated progesterone receptor component 1 (O00264 whole entry): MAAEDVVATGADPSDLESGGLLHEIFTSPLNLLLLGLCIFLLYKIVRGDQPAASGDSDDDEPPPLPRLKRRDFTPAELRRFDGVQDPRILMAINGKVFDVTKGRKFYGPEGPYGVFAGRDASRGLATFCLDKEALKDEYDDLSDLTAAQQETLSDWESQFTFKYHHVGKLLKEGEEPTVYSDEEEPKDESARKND
The target of test [7] is T3, Acyl-CoA dehydrogenase family member 10 (Homo sapiens, UniProt Q6JQN1).
T3 sequence (Q6JQN1 whole entry): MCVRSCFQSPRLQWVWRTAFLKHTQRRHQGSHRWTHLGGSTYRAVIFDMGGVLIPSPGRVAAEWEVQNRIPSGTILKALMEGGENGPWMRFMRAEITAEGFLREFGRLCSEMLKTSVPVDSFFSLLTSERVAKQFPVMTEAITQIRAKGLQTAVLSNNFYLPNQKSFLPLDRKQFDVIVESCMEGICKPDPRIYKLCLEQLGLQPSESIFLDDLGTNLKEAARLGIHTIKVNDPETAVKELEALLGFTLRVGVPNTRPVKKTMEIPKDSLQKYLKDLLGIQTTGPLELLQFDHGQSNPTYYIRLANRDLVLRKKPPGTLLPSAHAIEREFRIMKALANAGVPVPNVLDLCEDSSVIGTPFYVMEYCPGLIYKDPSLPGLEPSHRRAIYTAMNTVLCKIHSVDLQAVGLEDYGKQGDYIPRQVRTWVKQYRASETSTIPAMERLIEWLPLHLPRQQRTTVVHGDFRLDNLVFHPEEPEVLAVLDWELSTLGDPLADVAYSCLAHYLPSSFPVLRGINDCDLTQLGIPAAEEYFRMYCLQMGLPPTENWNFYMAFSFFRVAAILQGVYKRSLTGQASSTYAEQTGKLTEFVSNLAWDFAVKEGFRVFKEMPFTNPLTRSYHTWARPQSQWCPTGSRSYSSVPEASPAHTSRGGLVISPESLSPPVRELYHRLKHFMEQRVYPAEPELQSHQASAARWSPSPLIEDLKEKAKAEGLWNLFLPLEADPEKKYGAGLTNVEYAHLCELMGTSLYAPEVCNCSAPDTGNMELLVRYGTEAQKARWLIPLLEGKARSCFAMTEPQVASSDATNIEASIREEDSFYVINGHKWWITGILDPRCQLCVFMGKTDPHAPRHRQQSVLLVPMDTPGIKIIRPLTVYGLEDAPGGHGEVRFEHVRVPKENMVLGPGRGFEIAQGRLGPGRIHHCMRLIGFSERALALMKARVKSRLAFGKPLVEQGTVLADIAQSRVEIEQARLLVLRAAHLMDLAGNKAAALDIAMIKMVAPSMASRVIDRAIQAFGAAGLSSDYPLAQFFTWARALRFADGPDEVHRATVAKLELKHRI

Test [8] has as its target Serine/threonine-protein kinase PAK 4 (Homo sapiens, UniProt O96013).
In another test the target is T4, Rab-like protein 3 (Homo sapiens, UniProt Q5HYI8).
T4 sequence (Q5HYI8 whole entry): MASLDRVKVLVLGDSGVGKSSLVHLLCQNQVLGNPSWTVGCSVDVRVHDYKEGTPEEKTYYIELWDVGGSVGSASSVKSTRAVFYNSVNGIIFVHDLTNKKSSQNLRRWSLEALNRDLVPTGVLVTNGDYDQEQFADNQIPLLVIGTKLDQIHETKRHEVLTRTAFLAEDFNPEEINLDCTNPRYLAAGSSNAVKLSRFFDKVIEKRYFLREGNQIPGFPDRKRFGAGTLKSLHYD

The source made the active and inactive calls.
Also: in the data inactive means no Kd found up to 30 µM.

Chain of Mitogen-activated protein kinase 7 (Q13164 whole entry): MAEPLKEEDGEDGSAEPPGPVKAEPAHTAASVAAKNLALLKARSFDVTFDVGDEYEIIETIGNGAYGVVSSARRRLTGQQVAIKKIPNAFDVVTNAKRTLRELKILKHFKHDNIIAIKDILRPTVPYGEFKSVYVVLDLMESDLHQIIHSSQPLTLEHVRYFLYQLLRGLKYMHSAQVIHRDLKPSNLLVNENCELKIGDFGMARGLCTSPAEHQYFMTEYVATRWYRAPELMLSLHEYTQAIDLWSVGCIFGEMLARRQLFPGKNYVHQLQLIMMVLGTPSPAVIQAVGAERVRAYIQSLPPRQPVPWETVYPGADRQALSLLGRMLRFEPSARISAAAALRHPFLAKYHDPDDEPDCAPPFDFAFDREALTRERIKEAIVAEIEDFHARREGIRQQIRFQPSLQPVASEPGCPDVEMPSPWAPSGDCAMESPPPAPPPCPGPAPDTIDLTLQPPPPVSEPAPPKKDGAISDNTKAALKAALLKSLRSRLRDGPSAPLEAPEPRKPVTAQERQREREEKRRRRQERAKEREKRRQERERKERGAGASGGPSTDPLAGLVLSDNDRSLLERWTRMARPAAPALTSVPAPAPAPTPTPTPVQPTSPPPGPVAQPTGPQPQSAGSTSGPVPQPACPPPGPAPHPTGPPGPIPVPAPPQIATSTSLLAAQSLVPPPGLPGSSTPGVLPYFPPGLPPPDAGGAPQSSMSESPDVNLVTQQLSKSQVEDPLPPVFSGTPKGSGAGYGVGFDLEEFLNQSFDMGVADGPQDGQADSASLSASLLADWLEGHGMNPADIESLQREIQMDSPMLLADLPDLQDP
Chain of Putative heat shock protein HSP 90-beta 2 (Q58FF8 whole entry): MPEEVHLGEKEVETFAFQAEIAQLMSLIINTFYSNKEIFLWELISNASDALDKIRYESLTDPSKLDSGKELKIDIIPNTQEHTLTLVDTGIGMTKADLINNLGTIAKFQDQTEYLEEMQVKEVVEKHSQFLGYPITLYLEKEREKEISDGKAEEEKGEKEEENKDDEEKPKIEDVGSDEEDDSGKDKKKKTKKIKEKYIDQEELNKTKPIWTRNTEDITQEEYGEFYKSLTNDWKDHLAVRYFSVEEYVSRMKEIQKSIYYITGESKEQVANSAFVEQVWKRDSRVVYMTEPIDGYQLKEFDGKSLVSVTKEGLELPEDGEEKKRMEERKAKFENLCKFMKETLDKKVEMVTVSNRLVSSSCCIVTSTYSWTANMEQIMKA
Chain of Adenosine kinase (P55263 whole entry): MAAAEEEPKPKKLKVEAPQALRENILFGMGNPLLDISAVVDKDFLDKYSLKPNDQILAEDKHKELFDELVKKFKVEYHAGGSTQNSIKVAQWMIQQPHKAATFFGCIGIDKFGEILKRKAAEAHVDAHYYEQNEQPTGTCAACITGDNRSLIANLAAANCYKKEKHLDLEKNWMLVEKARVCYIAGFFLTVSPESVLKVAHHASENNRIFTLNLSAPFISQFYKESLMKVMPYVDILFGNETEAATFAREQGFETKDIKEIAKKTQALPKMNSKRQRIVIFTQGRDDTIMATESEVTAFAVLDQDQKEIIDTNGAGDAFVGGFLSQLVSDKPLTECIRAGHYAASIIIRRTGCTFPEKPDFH
Chain of Serine/threonine-protein kinase PAK 4 (O96013 whole entry): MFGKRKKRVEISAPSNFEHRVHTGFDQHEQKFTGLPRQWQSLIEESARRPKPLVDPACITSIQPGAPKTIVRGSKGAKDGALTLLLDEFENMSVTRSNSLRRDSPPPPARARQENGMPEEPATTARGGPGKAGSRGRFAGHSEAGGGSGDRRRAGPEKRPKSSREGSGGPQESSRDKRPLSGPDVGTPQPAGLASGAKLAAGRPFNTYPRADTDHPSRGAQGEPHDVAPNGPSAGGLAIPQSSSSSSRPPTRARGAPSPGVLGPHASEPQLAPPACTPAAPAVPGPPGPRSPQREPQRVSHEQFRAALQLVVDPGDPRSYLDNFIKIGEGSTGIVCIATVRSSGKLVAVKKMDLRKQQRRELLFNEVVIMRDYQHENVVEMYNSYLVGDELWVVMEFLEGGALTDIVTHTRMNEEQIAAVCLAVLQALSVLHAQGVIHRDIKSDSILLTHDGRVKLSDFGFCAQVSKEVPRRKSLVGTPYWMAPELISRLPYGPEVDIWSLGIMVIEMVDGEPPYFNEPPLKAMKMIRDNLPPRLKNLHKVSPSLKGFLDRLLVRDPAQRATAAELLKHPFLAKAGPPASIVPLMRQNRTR

For `Cn1cnc2c(F)c(Nc3ccc(Br)cc3F)c(C(=O)NOCCO)cc21` [BINIMETINIB], the Kd (in [1]; in test [2]; in test [3]; in test [4]; in [5]; on Adenosine kinase) was > 30 µM (inactive) each time. For the same compound, the Kd (in [6]; in [7]; in test [8]; on Rab-like protein 3) was > 30 µM (inactive) each time.
For `CCn1c(C(=O)N(C2CC2)C2CC2)cc2c3c(ncn3C)c(Nc3cc(C)n(C)n3)nc21` [BMS-911543], the Kd (in [1]; in [2]; in [3]; in test [4]; in test [5]; at Adenosine kinase) was > 30 µM (inactive) each time. Further, the Kd (in test [6]; in test [7]; in [8]; on Rab-like protein 3) was > 30 µM (inactive) each time.
As for `COc1cc2ncnc(Oc3cccc(NC(=O)Nc4cc(C(C)(C)C(F)(F)F)on4)c3)c2cc1OC` [CEP-32496], the Kd (in [1]; in test [2]; in [3]; in test [4]; in [5]; on Adenosine kinase) was > 30 µM (inactive) in each case. Also, the Kd (in test [6]; in test [7]; in test [8]; on Rab-like protein 3) was > 30 µM (inactive) throughout.
As for `COCC(=O)NC/C=C/c1ccc2ncnc(Nc3ccc(Oc4ccc(C)nc4)c(C)c3)c2c1` [CP-724714], the Kd (in test [1]; in [2]; in [3]; in [4]; in test [5]; at Adenosine kinase) was > 30 µM (inactive) each time. The Kd (in test [6]; in test [7]; in [8]; on Rab-like protein 3) was > 30 µM (inactive) in each case.
Regarding `C#Cc1cccc(Nc2ncnc3cc(OC)c(OCCCCCCC(=O)NO)cc23)c1` [CUDC-101], the Kd (in test [1]; in [2]; in test [3]; in test [4]; in test [5]; at Adenosine kinase) was > 30 µM (inactive) each time. Besides, the Kd (in test [6]; in test [7]; in test [8]; on Rab-like protein 3) was > 30 µM (inactive) each time.
As for `CC(C)(C)c1nc(-c2cccc(NS(=O)(=O)c3c(F)cccc3F)c2F)c(-c2ccnc(N)n2)s1` [DABRAFENIB], the Kd (in test [1]; in test [2]; in test [3]; in test [4]; in [5]; on Adenosine kinase) was > 30 µM (inactive) each time. Also, the Kd (in test [6]; in [7]; in test [8]; on Rab-like protein 3) was > 30 µM (inactive) throughout.
In the case of `O=C(Nc1nc2cccc(-c3ccc(CN4CCS(=O)(=O)CC4)cc3)n2n1)C1CC1` [FILGOTINIB], the Kd in test [1] was > 30 µM (inactive); in test [2], 6.59 µM (active); in [3], > 30 µM (inactive); in test [4], > 30 µM (inactive); in test [5] it was > 30 µM (inactive); on Adenosine kinase, > 30 µM (inactive). The Kd (in [6]; in test [7]; in test [8]; at Rab-like protein 3) was > 30 µM (inactive) each time.
`Cc1cccc(-c2nn3c(c2-c2ccnc4ccc(C(N)=O)cc24)CCC3)n1` [GALUNISERTIB]: the Kd (in [1]; in [2]; in test [3]; in [4]; in test [5]; at Adenosine kinase) was > 30 µM (inactive) in each case. The Kd (in test [6]; in [7]; in test [8]; on Rab-like protein 3) was > 30 µM (inactive) in each case.
As to `O=C(Nc1cc(C(F)(F)F)cc(C(F)(F)F)c1)c1cc(Cl)ccc1O` [IMD-0354], the Kd (in test [1]; in test [2]; in test [3]; in test [4]; in test [5]; on Adenosine kinase) was > 30 µM (inactive) throughout. In addition, the Kd (in test [6]; in test [7]; in [8]; at Rab-like protein 3) was > 30 µM (inactive) in each case.
Take `CNC(=O)c1nn(C)c2c1C(C)(C)Cc1cnc(Nc3ccc(N4CCN(C)CC4)cc3)nc1-2` [MILCICLIB]: the Kd is > 30 µM (inactive) in test [1]; > 30 µM (inactive) in test [2]; > 30 µM (inactive) in [3]; > 30 µM (inactive) in test [4]; 2.97 µM (active) in test [5]; > 30 µM (inactive) on Adenosine kinase. Moreover, the Kd (in test [6]; in [7]; in [8]; on Rab-like protein 3) was > 30 µM (inactive) each time.
